ChEMBL document CHEMBL1201862, “PubChem BioAssay data set” (2004)
Calls of active or inactive are those of the source.

Columns and labels:
[1] = Luminescence Cell-Based Dose Response HTS to Identify Inhibitors of 5'UTR Stem-Loop Driven Prion Protein mRNA Translation in H4 Neuroglioblastoma Cells. [Related pubchem assays: 1827 (Project Summary), 1813 (Primary HTS)]; type: functional
[2] = inhibitors of SNCA 5'UTR-driven reporter translation, confirmation, H4 neuroglioma cells, luminescence (AID 1988); type: functional, cell-based
[3] = inhibitors of firefly luciferase expression or activity, dose response, H4 neuroglioma cells, luminescence (AID 1990); type: functional, cell-based
[4] = molecular target: T1, Replicative DNA helicase DnaB (Mycobacterium tuberculosis, UniProt P9WMR3); experiment: DnaB intein splicing inhibitors, dose response, biochemical, cell-free fluorescence (AID 449749); type: functional
T1 sequence (P9WMR3 whole entry): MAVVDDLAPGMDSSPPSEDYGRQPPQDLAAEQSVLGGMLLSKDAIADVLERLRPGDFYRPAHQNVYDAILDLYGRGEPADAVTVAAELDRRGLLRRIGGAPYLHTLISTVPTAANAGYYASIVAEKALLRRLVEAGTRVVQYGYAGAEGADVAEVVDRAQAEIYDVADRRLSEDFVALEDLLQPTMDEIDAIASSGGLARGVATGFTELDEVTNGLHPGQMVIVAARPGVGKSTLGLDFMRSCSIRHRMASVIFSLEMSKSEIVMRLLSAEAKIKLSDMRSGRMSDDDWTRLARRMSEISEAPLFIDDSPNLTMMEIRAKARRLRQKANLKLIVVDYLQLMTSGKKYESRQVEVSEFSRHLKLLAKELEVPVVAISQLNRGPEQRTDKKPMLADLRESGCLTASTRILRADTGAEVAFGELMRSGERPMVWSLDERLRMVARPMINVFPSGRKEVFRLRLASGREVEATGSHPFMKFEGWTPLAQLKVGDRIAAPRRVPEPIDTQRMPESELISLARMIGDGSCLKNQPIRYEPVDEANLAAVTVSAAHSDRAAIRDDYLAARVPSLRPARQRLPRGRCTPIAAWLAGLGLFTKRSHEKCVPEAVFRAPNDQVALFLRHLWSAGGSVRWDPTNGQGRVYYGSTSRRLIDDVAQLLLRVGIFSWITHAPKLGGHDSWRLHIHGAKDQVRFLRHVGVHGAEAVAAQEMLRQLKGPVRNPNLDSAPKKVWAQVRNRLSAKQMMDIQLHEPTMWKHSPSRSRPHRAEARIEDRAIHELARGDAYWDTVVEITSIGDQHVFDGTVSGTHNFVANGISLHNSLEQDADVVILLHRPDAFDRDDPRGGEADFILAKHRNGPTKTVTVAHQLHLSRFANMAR

Protein RecA = molecular target: T2, Protein RecA (Mycobacterium tuberculosis, UniProt P9WHJ3); experiment: Fluorescence Cell-Free Homogeneous Dose Retest to Identify Inhibitors of RecA-Intein Splicing Activity. [Related pubchem assays (depositor defined):AID2097, AID2223, AID489010, AID492950]; type: functional
T2 sequence (P9WHJ3 whole entry): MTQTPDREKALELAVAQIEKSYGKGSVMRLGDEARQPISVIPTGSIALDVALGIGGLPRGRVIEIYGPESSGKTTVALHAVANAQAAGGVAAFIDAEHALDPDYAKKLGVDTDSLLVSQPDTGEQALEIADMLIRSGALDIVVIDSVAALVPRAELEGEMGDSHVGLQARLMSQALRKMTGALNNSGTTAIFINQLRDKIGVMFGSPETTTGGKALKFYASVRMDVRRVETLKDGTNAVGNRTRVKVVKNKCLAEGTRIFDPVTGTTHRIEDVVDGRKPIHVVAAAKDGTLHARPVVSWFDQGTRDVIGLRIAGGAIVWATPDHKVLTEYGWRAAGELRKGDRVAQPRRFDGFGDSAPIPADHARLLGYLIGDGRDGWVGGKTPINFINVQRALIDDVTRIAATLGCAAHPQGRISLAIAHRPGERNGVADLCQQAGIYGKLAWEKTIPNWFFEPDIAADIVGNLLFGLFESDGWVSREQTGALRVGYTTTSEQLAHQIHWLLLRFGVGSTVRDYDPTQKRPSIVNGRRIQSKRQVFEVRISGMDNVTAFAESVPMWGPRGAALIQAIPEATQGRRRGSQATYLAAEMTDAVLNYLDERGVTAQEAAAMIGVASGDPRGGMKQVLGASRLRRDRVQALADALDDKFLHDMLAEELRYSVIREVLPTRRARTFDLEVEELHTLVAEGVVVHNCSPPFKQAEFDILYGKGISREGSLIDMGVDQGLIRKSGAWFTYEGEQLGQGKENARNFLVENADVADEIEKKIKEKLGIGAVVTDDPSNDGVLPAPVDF

[5] = inhibitors of intracellular T. cruzi replication, confirmation, NIH3T3 host cells, beta-gal luminescence (AID 2044); type: functional, cell-based;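 further: intracellular parasites grown in NIH/3T3 mouse fibroblasts as host cells; luminescent beta-galactosidase reporter signal from transgenic T. cruzi replicating inside host cells; inhibitors lower the luminescence signal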
[6] = molecular target: T3, Heat shock factor protein 1 (Mus musculus, UniProt P38532); experiment: inhibition of MG132-induced HSE-luciferase signal, confirmation, cell-based, NIH3T3, luminescence, dose retest (AID 2382); type: functional;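 further: NIH3T3 fibroblasts with HSF1-driven luciferase reporter stressed by proteasome inhibitor MG132; luminescence from HSF1-driven luciferase expression after 8 hours of MG132 stress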
T3 sequence (P38532 whole entry): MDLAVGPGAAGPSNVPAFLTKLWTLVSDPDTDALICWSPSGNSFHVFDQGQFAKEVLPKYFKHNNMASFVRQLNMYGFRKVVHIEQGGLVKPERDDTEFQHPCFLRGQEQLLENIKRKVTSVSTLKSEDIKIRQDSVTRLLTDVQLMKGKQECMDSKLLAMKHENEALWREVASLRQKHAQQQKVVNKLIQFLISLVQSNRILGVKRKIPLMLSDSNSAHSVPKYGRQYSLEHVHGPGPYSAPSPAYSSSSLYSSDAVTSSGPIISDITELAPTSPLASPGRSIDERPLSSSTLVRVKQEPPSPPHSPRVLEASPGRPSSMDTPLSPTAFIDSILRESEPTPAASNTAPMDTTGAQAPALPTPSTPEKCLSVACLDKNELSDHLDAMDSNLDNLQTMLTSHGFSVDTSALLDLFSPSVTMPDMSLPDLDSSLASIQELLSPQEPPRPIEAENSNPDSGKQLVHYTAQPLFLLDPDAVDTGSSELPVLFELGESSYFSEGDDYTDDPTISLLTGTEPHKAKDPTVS

[7] = cytotoxicity toward NIH3T3 fibroblasts, dose response, counter-screen, cell-based, ATP luminescence, mouse fibroblasts (AID 2010); type: functional;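 further: cells exposed to compound for about 90 hours before reading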
INS1 = experiment: beta cell apoptosis inhibitors, cytokine rescue, dose response, luminescence, retest (AID 449756); type: functional, cell-based; conditions: Rattus norvegicus;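 further: cell death triggered by IL-1 beta plus TNF-alpha plus IFN-gamma mixture; protective hits raise ATP signal compared with cytokine alone wells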
[8] = Luminescence Cell-Based Dose Retest to Confirm Inhibitors of Cancer Stem Cells. [Related pubchem assays (depositor defined):AID2717, AID2721]; type: functional; conditions: Homo sapiens
[9] = microbe, parasite or virus in culture; type: functional; conditions: Mycobacterium tuberculosis
[10] = molecular target: T4, Calpain-2 catalytic subunit (Sus scrofa, UniProt P43367); experiment: pig calpain II inhibitor potency, dose response, biochemical, fluorogenic peptide substrate (AID 1420); type: functional
T4 sequence (P43367 whole entry): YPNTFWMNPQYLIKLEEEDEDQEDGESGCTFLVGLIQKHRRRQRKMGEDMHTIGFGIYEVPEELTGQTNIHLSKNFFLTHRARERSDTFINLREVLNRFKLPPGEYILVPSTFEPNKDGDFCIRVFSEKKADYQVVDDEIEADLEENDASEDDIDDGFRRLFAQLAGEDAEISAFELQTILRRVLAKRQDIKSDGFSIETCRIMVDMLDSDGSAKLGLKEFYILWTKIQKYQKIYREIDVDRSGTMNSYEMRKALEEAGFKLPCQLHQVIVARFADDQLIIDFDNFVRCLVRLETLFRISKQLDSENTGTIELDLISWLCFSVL

Cytochrome P450 3A4 = Cytochrome P450 3A4 (Homo sapiens, UniProt P08684);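 further: CYP3A4 tested as one member of a cytochrome P450 panel screen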
Cytochrome P450 3A4, sequence (P08684 whole entry): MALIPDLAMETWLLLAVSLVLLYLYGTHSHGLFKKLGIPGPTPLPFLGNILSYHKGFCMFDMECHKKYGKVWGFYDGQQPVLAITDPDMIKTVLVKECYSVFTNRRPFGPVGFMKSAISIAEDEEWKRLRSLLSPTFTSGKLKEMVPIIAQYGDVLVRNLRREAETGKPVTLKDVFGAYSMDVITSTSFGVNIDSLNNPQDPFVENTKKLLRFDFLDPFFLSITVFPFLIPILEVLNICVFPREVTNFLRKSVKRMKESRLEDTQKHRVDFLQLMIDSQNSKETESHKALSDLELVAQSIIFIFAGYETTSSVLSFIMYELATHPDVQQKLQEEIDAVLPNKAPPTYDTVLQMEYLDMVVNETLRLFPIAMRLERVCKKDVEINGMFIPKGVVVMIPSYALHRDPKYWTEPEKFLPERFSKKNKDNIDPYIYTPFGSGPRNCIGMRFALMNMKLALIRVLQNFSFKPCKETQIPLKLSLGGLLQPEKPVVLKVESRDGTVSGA

Cytochrome P450 1A2 = molecular target: T5, Cytochrome P450 1A2 (Homo sapiens, UniProt P05177);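 further: PubChem cytochrome P450 panel assay, CYP1A2 panel member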
T5 sequence (P05177 whole entry): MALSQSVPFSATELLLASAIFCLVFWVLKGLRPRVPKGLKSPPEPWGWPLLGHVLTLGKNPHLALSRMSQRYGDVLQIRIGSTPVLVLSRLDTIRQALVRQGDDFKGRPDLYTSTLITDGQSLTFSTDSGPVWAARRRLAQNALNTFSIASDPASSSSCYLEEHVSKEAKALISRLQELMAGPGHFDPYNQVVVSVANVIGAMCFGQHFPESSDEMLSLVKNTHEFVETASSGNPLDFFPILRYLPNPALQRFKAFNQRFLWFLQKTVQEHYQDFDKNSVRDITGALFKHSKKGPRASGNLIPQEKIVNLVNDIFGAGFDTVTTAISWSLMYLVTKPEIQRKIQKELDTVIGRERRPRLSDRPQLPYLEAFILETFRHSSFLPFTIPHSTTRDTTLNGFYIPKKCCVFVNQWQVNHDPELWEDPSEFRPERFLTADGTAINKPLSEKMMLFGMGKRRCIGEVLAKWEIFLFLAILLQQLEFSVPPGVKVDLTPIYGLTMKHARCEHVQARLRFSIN

[11] = molecular target: T3, Heat shock factor protein 1; experiment: HSF1 potentiators in luciferase reporter cells, confirmation, cell-based, NIH3T3, luminescence, dose retest (AID 435004); type: functional;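 further: stress induced by proteasome inhibitor MG132 added 30 min after compound; luciferase reporter driven by HSF1 response element in NIH3T3 cells; actives raise luminescence as potentiators of the MG132 stress response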
cells = type: functional

COc1ccc(CN(Cc2cc3cc4c(cc3nc2O)OCO4)C(=O)NC2CCCCC2)cc1
EC50 [1]: > 120 µM (not active)
EC50 [2]: > 120 µM (not active)
EC50 [3]: 17.8 µM (active)

C/C(CC(=O)Nc1cc(C)ccn1)=N\NC(=O)c1cccc(F)c1
AC50 [4]: 18.7 µM (active)
EC50 (Protein RecA): 8.06 µM (active)

Cc1ccc2c(N)c(C(=O)N(c3ccccc3)c3ccccc3)sc2n1
EC50 [5]: 1.3 µM (active)
EC50 [6]: > 195 µM (not active)
EC50 [7]: > 60 µM (not active)

CCOC(=O)c1c(C)[nH]c(C2=NN=C(Nc3cccc(Cl)c3)SC2)c1C
EC50 [6]: 25.3 µM (active)

CN(Cc1ccc(Cl)cc1)C(=O)CCl
AC50 [4]: 21.8 µM (active)
EC50 (Protein RecA): 2.61 µM (active)

CCCc1n[nH]c2c1C(c1ccc(O)cc1OCC)C(C#N)=C(N)O2 (stereo unspecified)
AC50 [4]: 40.3 µM (active)
EC50 (Protein RecA): 4.6 µM (active)

Oc1ccc(Nc2nc(-c3ccc4ccccc4c3)cs2)cc1
AC50 [4]: 67.6 µM (active)
AC50 (INS1): 16.6 µM (active)
AC50 [8]: 5.31 µM (active)
CC50 [9]: 17.1 µM (active)
EC50 (Protein RecA): 7.3 µM (active)

CC(=O)Oc1cc2c(cc1Cl)C1(CC(c3ccccc3Cl)O2)CC(C)(C)N=C(S)N1 (stereo unspecified)
AC50 [4]: 4.22 µM (active)
EC50 (Protein RecA): 14.1 µM (active)

COC(=O)Nc1sccc1C(=O)Nc1sccc1C(=O)OC
EC50 [6]: > 195 µM (not active)

CC(=O)Nc1ccc(NC(=O)CN(c2ccc(C(C)C)cc2)S(=O)(=O)c2ccccc2)cc1
EC50 [1]: > 120 µM (not active)
EC50 [2]: > 120 µM (not active)
EC50 [3]: > 120 µM (not active)

CC(C)(C)OC(=O)C1C(=O)CC(C)(O)C(C(=O)OC(C)(C)C)C1c1cccnc1 (stereo unspecified)
EC50 [6]: > 195 µM (not active)

COc1ccc(-c2noc(N3CCC(C(=O)NCCCN4CC(C)CC(C)C4)CC3)n2)cc1 (stereo unspecified)
EC50 [6]: > 195 µM (not active)

S=C(Nc1ccccc1Oc1ccccc1)Nc1cccc(Cl)c1Cl
IC50 [10]: 12.7 µM (not active)

CC(C)CC(=O)NC(NC(=O)CC(C)C)c1cccc([N+](=O)[O-])c1
EC50 [6]: > 195 µM (not active)

O=c1ccc2ccc(Oc3ccc(Cl)cc3[N+](=O)[O-])cc2o1
IC50 [10]: < 0.4 µM (not active)

CC(=O)N1CC2(c3ccccc3)CN(C(C)=O)CC(c3ccccc3)(C1)C2=O
AC50 [4]: > 380 µM (inactive)
EC50 (Protein RecA): > 380 µM (inactive)

CC(O)c1nc2ccccc2n1Cc1nnc(-c2ccc(Cl)cc2)o1 (stereo unspecified)
EC50 [6]: > 195 µM (not active)

COC(=O)c1c(C)oc2ccc(N(C(=O)c3ccncc3)S(=O)(=O)c3ccc(C)cc3C)cc12
AC50 [4]: 2.27 µM (active)
AC50 (INS1): 3.85 µM (active)
EC50 (Protein RecA): 10.9 µM (active)

Cc1[nH]n(-c2ccccc2)c(=O)c1N=Nc1ccc2c(c1)OCO2
EC50 [6]: > 195 µM (not active)

Fc1ccc(Cc2nnc(-c3cccs3)o2)cc1
EC50 [6]: > 195 µM (not active)

CCOC(=O)Cn1c(=O)cc(C)c2cccc(C)c21
IC50 [10]: < 0.4 µM (not active)

S=C(c1ccc(N2CCCC2)cc1)N1CCCCC1
IC50 [10]: 12.1 µM (active)

Cc1cccc(NC(=O)c2cc3c(=O)n4ccccc4nc3n(CC(C)C)c2=N)c1
IC50 [10]: > 50 µM (not active)

CC1(C)C=C(c2ccc(C=O)s2)CC(C)(C)N1C=O
EC50 [6]: > 195 µM (not active)

CCOc1ccc(NC(=O)CN(C)C(=O)c2ccc(N3CCCC3)c([N+](=O)[O-])c2)cc1OCC
EC50 [6]: > 195 µM (not active)

Cc1cccc(NC(=O)CSc2nnc(CNC(=O)c3cccs3)o2)c1C
IC50 [10]: 7.44 µM (not active)

C#CCSc1nnc(-c2sc3ccccc3c2Cl)o1
IC50 [10]: > 50 µM (not active)
AC50 (Cytochrome P450 3A4): 8.91 µM (inconclusive)
AC50 (Cytochrome P450 1A2): 0.126 µM (inconclusive)

CC(=C/C(=O)O)/C(=C/c1ccccc1)C(=O)O
IC50 [10]: < 0.4 µM (not active)

COc1ccc(N/N=C(\C#N)C(=N)SCc2ccccc2)cc1
AC50 [4]: 3.6 µM (active)
EC50 (Protein RecA): 8.67 µM (active)

Cc1ccc(NS(=O)(=O)c2cc(C(=O)NCCSC3CCCCC3)ccc2C)cc1
IC50 [10]: > 50 µM (not active)

O=C(NCCc1ccccn1)c1ccc(OC(F)F)cc1
IC50 [10]: < 0.4 µM (not active)

CSC(=N/c1cc(Cl)ccc1Cl)/C(C#N)=C(/O)c1ccco1
AC50 [4]: 2.51 µM (active)
EC50 [11]: 11.2 µM (active)
CC50 [9]: 37.1 µM (active)
IC50 (cells): 7.46 µM (active)
EC50 (Protein RecA): 0.912 µM (active)
